Experimental data reported in patent US20090047246A1, “NOVEL INHIBITORS OF HEPATITIS C VIRUS REPLICATION” (InterMune, Inc., priority 2007, published 2009).

Target: T1, HCV NS3 helicase (Hepatitis C virus genotype 1b, UniProt P26663)
T1 construct: full-length NS3 (1-631), purified at Array BioPharma
Assay: HCV Helicase Prompt FRET Assay (Example A)
Type: biochemical
Details: HCV NS3 helicase; tables do not say whether Example A or Example B assay; read-out: IC50 Activity
Summary of the method: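 Full-length NS3 (1-631), 5 or 6 nM, preincubated 5 min with compound, then unwinds 50 nM FAM/BHQ-1 duplex substrate with 250 nM capture strand and 300 μM ATP in 25 mM MOPS pH 7.0, 1.5 mM MgCl2, 0.005% Triton X-100, 2% DMSO. Fluorescence (485/535 nm) followed ~30 min at room temperature; IC50 from initial rates by 4- or 5-parameter fit.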

T1 sequence (P26663 1027-1657): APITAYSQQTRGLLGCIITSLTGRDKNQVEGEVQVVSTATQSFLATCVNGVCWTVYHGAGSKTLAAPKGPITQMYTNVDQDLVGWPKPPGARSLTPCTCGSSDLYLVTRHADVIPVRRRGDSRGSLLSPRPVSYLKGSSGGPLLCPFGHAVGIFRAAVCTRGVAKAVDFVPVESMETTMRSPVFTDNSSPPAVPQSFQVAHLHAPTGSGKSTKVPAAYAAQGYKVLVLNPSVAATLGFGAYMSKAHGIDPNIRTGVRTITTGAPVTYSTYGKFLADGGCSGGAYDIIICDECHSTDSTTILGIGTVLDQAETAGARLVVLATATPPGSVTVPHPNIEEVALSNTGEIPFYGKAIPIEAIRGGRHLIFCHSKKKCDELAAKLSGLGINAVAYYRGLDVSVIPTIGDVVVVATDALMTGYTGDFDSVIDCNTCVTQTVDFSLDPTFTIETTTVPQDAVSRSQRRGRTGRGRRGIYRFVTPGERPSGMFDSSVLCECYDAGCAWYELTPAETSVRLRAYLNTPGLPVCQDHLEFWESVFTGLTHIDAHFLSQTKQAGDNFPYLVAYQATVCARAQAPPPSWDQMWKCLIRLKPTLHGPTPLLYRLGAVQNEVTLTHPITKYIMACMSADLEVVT

Row | Compound | IC50 [µM]
1 | NC(=O)Cc1c(-c2ccccc2)n(Cc2csc3ccc(Cl)cc23)c2ccccc12 [Example 200] | 10 to 50
2 | O=C(O)Cc1c(C(=O)c2cccc(-c3cccc(Cl)c3)c2)[nH]c2ccccc12 [Example 232] | 10 to 50
3 | O=Cc1c[nH]c2cnc(OCc3ccccc3)cc12 [Example 326] | > 50
4 | COc1ccccc1Oc1ccc(Cn2cc(CC(=O)O)c3ccccc32)cc1 [Example 500] | < 10
5 | O=C(O)Cc1cn(Cc2cccc(Oc3ccc(F)cc3)c2)c2ccc(OCc3ccccc3)cc12 [Example 120] | < 10
6 | Cc1cc(NCc2ccccc2)ccc1-n1cc(CC(=O)O)c2ccccc21 [Example 173] | 10 to 50
7 | Cc1cc([N+](=O)[O-])ccc1-n1cc(/C=C/C(=O)O)c2cc(/C=C/C(=O)O)cnc21 [Example 323] | > 50
8 | O=C(O)Cc1c(C(=O)c2cccc(-c3cccc(Cl)c3Cl)c2)oc2ccccc12 [Example 241] | < 10
9 | O=C(O)Cc1c(C(=O)c2ccc(-c3cccc(Cl)c3)cc2)[nH]c2ccccc12 [Example 253] | 10 to 50
10 | COc1ccccc1Oc1cccc(Cn2cc(CC(=O)O)c3ccccc32)c1 [Example 478] | 10 to 50
11 | CN(c1cccc(Cn2cc(CC(=O)O)c3ccccc32)c1)c1ccccc1Cl [Example 523] | < 10
12 | CN(Cc1ccccc1)c1ccc(-n2cc(CC(=O)O)c3ccccc32)cc1 [Example 162] | < 10
13 | Cc1cc([N+](=O)[O-])ccc1-n1cc(C(CC2CC2)C(=O)O)c2ccccc21 (stereo not shown) [Example 416] | 10 to 50
14 | O=C(O)Cc1c(C(=O)c2cccc(Oc3ccccc3)c2)n(CC2CC2)c2ccccc12 [Example 221] | < 10
15 | O=C(O)Cc1cn(Cc2cccc(Oc3cc(F)cc(F)c3)c2)c2ccccc12 [Example 485] | 10 to 50
16 | Clc1ccc2scc(Cn3cc(Cc4nnn[nH]4)c4ccccc43)c2c1 [Example 202] | < 10
17 | COC(=O)/C=C/c1cnc2c(c1)c(CC(=O)O)cn2-c1ccc(NCCC(=O)OC)cc1C [Example 334] | 10 to 50
18 | CSc1cccc(-c2ccc(-n3cc(CC(=O)O)c4ccccc43)cc2)c1 [Example 155] | < 10
19 | CN(c1cccc(Cn2cc(CC(=O)O)c3ccccc32)c1)c1cc(F)ccc1F [Example 535] | 10 to 50

Row | Compound | IC50 [µM]
20 | Cc1cc([N+](=O)[O-])ccc1-n1cc(CP(=O)(O)O)c2cc(Br)ccc21 [Example 313] | 10 to 50
21 | O=C(O)Cc1cn(Cc2cccc(Oc3ccccc3)c2)c2ccc(Br)cc12 [Example 105] | < 10
22 | CCS(=O)(=O)NC(=O)Cc1cn(Cc2cccc(OCc3ccccc3)c2)c2ccc(OCc3ccccc3)cc12 [Example 193] | < 10
23 | Cc1ccc(-c2ccc(Cc3[nH]c4ccccc4c3CC(=O)O)cc2)cc1C [Example 282] | < 10
24 | Cc1ccc(-c2ccc(C(=O)c3[nH]c4ccccc4c3CC(=O)O)cc2)cc1 [Example 256] | 10 to 50
25 | O=C(O)Cc1c(C(=O)c2cccc(-c3ccc(Cl)c(Cl)c3)c2)oc2ccccc12 [Example 243] | < 10
26 | O=C(O)C(Cc1ccccc1)c1cn(Cc2csc3ccc(Cl)cc23)c2cc(OCc3ccccc3)ccc12 (stereo not shown) [Example 351] | < 10
27 | CCOC(=O)c1ccc(Cn2cc(CC(=O)O)c3cc(OCc4ccccc4)ccc32)o1 [Example 128] | 10 to 50
28 | Cc1cc(C)cc(-c2cccc(C(=O)c3[nH]c4ccccc4c3CC(=O)O)c2)c1 [Example 233] | < 10
29 | O=C(O)Cc1c(C(=O)c2cccc(Oc3ccccc3)c2)n(Cc2ccccc2)c2ccccc12 [Example 222] | < 10
30 | COC(=O)/C=C/c1cn(-c2ccc([N+](=O)[O-])cc2C)c2ncc(OCc3ccccc3)cc12 [Example 328] | > 50
31 | O=C(Cc1cn(Cc2csc3ccc(Cl)cc23)c2ccccc12)NS(=O)(=O)C1CC1 [Example 198] | 10 to 50
32 | O=C(O)Cc1c(Cc2ccc(-c3ccc(Cl)c(Cl)c3)cc2)[nH]c2ccccc12 [Example 280] | < 10
33 | O=C(O)Cc1c(C(=O)c2ccc(-c3ccc(C(=O)O)cc3)cc2)[nH]c2ccccc12 [Example 266] | 10 to 50
34 | COc1ccc2scc(Cn3cc(CC(=O)O)c4cc(Br)ccc43)c2c1 [Example 136] | < 10
35 | Cc1cc([N+](=O)[O-])ccc1-n1cc(/C=C/C(=O)O)c2cc(Br)cnc21 [Example 330] | > 50
36 | O=P(O)(O)Cc1cn(-c2ccc(S(=O)(=O)CCO)cc2)c2ccc(Br)cc12 [Example 315] | 10 to 50
37 | CCOC(=O)C(Cc1ccccc1)c1c(-c2ccccc2)n(Cc2csc3ccc(Cl)cc23)c2ccccc12 (stereo not shown) [Example 413] | > 50

Second part, the compound after the results:

Row | IC50 [µM] | Compound
38 | 10 to 50 | O=C(O)Cc1cn(Cc2csc3ccc(Cl)cc23)c2cc(-c3ccnc(Cl)c3)ccc12 [Example 740]
39 | 10 to 50 | CCOC(=O)Cc1cn(Cc2ccc(Oc3ccc(C(F)(F)F)cc3)cc2)c2cc(-c3cccc(OC(C)=O)c3)ccc12 [Example 606]
40 | > 50 | CCOC(=O)Cc1cn(Cc2ccc(Oc3cccc(Cl)c3)cc2)c2cc(-c3cccc(OC(C)=O)c3)ccc12 [Example 601]

Same assay, conditions: Table 21, compounds made using Scheme 28; read-out: IC50 Activity

Row | IC50 [µM] | Compound
41 | < 10 | CN(c1ccc(Cn2cc(CC(=O)O)c3ccccc32)cc1)c1ccc(C(F)(F)F)cc1 [Example 567]
42 | 10 to 50 | COc1ccc(N(C)c2ccc(Cn3cc(CC(=O)O)c4ccccc43)cc2)c(OC)c1 [Example 577]
43 | < 10 | CN(c1ccc(Cn2cc(CC(=O)O)c3ccccc32)cc1)c1ccccc1Cl [Example 559]
44 | < 10 | CN(c1ccc(Cn2cc(CC(=O)O)c3ccccc32)cc1)c1cc(F)ccc1F [Example 570]

Same assay, conditions: Table 29, compounds made using Scheme 36; read-out: IC50 Activity

Row | IC50 [µM] | Compound
45 | > 50 | Nc1ncc(C(=O)O)c(-c2ccc3c(CC(=O)O)cn(Cc4csc5ccc(Cl)cc45)c3c2)n1 [Example 621]

Same assay, conditions: Table 31, compounds made using Schemes 38-45; read-out: IC50 Activity

Row | IC50 [µM] | Compound
46 | < 10 | Nc1nc(Cl)cc(-c2ccc3c(CC(=O)O)cn(Cc4csc5ccc(Cl)cc45)c3c2)n1 [Example 636]
47 | 10 to 50 | Nn1cc(-c2ccc3c(CC(=O)O)cn(Cc4csc5ccc(Cl)cc45)c3c2)c(=O)[nH]c1=O [Example 653]
48 | < 10 | O=C(O)Cc1cn(Cc2csc3ccc(Cl)cc23)c2cc(-c3cccc(O)c3)ccc12 [Example 625]
49 | < 10 | CNc1nc(-c2ccc3c(CC(=O)O)cn(Cc4csc5ccc(Cl)cc45)c3c2)nc2[nH]cnc12 [Example 640]

Same assay, conditions: Table 34, compounds made using Schemes 51-52; read-out: IC50 Activity

Row | IC50 [µM] | Compound
50 | 10 to 50 | COC(=O)C(=O)c1cn(Cc2csc3ccc(Cl)cc23)c2cc(N3CCCC(OC(C)=O)C3)ccc12 (stereo not shown) [Example 696]
51 | 10 to 50 | CC(C)c1ccc(Cn2cc(CC(=O)NO)c3ccccc32)cc1 [Example 677]
52 | 10 to 50 | Cc1cc([N+](=O)[O-])ccc1-n1cc(C(NC(=O)c2ccccc2)C(=O)O)c2ccccc21 (stereo not shown) [Example 670]
53 | > 50 | Cc1cc([N+](=O)[O-])ccc1-n1cc(C(NC(=O)C2CCCN2)C(=O)O)c2ccccc21 (stereo not shown) [Example 672]

Same assay, conditions: Table 37, compounds made using Scheme 55; read-out: IC50 Activity

Row | IC50 [µM] | Compound
54 | < 10 | Nc1cccc(-c2ccc3c(CC(=O)O)cn(Cc4csc5ccc(Cl)cc45)c3c2)c1 [Example 765]
55 | 10 to 50 | Cc1cccc(-c2ccc3c(CC(=O)O)cn(Cc4csc5ccc(Cl)cc45)c3c2)c1 [Example 752]
56 | 10 to 50 | O=C(O)Cc1cn(Cc2csc3ccc(Cl)cc23)c2cc(-c3ccncc3)ccc12 [Example 764]
57 | > 50 | Cc1ccc(-c2ccc3c(CC(=O)O)cn(Cc4csc5ccc(Cl)cc45)c3c2)cc1 [Example 751]

Same assay, conditions: Table 38, compounds made using Scheme 56, Scheme 57 and Scheme 61; read-out: IC50 Activity

Row | IC50 [µM] | Compound
58 | 10 to 50 | CN(c1cc(Cl)cc2c(Cn3cc(CC(=O)O)c4ccc(-c5cc(N)cc(N)c5)cc43)csc12)S(C)(=O)=O [Example 730]
